Patent publication US20230330109A1, “COMPOUND FOR PREVENTING AND TREATING LIVER DISEASES AND PHARMACEUTICAL USE THEREOF” (CHENGDU BIOBEL COMPANY LIMITED, priority 2020, published 2023)
Structures can show the parent of a compound that is named as a salt.

Legend:
Type in all cases: in vivo
male C57BL/6N mice [1] = test: Serum biochemical indexes in MCD diet FLD mice (Experimental Example 1); parameters: AST / ALT / ALP: unit not given here; settings: for decrease rate of ALP / decrease rate of ALT / decrease rate of AST: compared with the model group, dosages as in Table 1; for ALP / ALT / AST: serum, MCD diet mice, drug in diet for 20 days, dosage 300 mg/kg/d (I-1, HTD1801) or 150 mg/kg/d (nor-UDCA, berberine hydrochloride)
Source text: (§1) 48 male C57BL/6N mice (8-week-old) were chosen, in which 8 mice were randomly divided into the blank group, fed with normal diet, while the other 40 mice were all subjected to establishing models. There was an adaptation period of 6 days before modeling. Then, mice were fed with the mixture of MCD and MCS (TROPHIC Animal Feed High-Tech Co. Ltd, Nantong, Jiangsu, China, TP3005GS, high-fat feed) in a ratio of 1:2, 1:1 and 2:1, and each ratio of diet was given to the mice for two days in the order of 1:2, 1:1 and 2:1. After that, mice were given MCD feed for 28 days (TROPHIC Animal Feed High-Tech Co. Ltd, Nantong, Jiangsu, China, TP3005G, methionine- and choline-deficient diet). On the 28th day, mice were randomly divided into five groups, namely model group, compound I-1 group, norUDCA group, berberine hydrochloride group, and HTD1801 group, eight mice for each group. After grouping, each treatment group was further fed customized MCD diet containing drugs for 20 days, while the model group was fed the same diet as the previous. All groups were fed the isocaloric diet. After the last administration on the 21st day, the mice were fasted for 16 h (but free access to water) and weighed. Then, blood was taken from the femoral artery and centrifuged to separate the serum, which was stored at low temperature of −30° C., ready for testing the biochemical indexes of the serum. In addition, the liver was taken, and two pieces of left lobe were taken for each mouse, which were placed in 10% neutral formalin solution, respectively. After treatment, liver histopathological examination was performed.

male C57BL/6N mice [2] = test: Liver histopathological examination in MCD diet FLD mice (Experimental Example 1); parameters: scale not given here; settings: liver histopathology, dosage 300 mg/kg (I-1, HTD1801) or 150 mg/kg (nor-UDCA, berberine hydrochloride)
Source text: as §1

male C57BL/6N mice [3] = test: Hepatic fat staining in MCD diet FLD mice (Experimental Example 1); settings: dosage 300 mg/kg (I-1, HTD1801) or 150 mg/kg (nor-UDCA, berberine hydrochloride)
Source text: as §1

male Wistar rats = test: Thioacetamide-induced hepatic fibrosis/cirrhosis in rats, Sirius Red fibrosis area; settings: for decrease rate of fibrosis area: compared with the rat cirrhosis model group, dosages as in Table 4; for Hepatic fibrosis area (%): thioacetamide rats, oral, Sirius Red, dosage 160 mg/kg (I-1, HTD1801) or 80 mg/kg (nor-UDCA, berberine hydrochloride)
Source text: 60 male Wistar rats (weighing 180-220 g) were divided into 6 groups, with 10 rats in each group, and the rats were provided by Chengdu Dossy Experimental Animal Co., Ltd. In the experiment, the compound of the present invention and the positive control drug nor-UDCA were first ground in a proper amount of Tween, and then diluted to the pre-determined concentration with 0.5% carboxymethyl cellulose (CMC) sodium.
The rat liver fibrosis model was established by inducing with thioacetamide. Rats were intraperitoneally injected with thioacetamide at a dose of 200 mg/kg, three times a week, for 12 weeks. Four weeks after induction with thioacetamide, the compound of the present invention was orally administered to the test groups, while the blank group and the model group were given the same amount of CMC suspension. Among them, every morning, rats in each test group were given 160 mg/kg of compound I-1, 80 mg/kg of nor-UDCA, 80 mg/kg of berberine hydrochloride, and 160 mg/kg of positive control HTD1801. After experiment, all rats were euthanized, and their livers were taken out.
The liver tissue was fixed with 10% formaldehyde solution and embedded in paraffin. The fixed liver tissue was sectioned with a thickness of about […], and then stained with Hematoxylin-Eosin (HE) and Sirius Red. Sirius Red staining was used for morphological analysis and to determine the percentage of liver tissue affected by its fibrosis. The image of the section was collected by using the microscopic imaging system. In order to make the results more accurate, 15 positive visual fields of Sirius Red staining were randomly selected from each slice to calculate the proportion of liver fibrosis area, which was used in statistical analysis.

| Structure (SMILES) | decrease rate of ALP (male C57BL/6N mice [1]) [%] | decrease rate of ALT (male C57BL/6N mice [1]) [%] | decrease rate of AST (male C57BL/6N mice [1]) [%] | ALP (male C57BL/6N mice [1]) | ALT (male C57BL/6N mice [1]) | AST (male C57BL/6N mice [1]) | Score Edema (male C57BL/6N mice [2]) | Score Inflammation cell infiltration (male C57BL/6N mice [2]) | Score Necrosis (male C57BL/6N mice [2]) | Score Steatosis (male C57BL/6N mice [2]) | Hepatic fat staining Scores (male C57BL/6N mice [3]) | decrease rate of fibrosis area (male Wistar rats) [%] | Hepatic fibrosis area (%) (male Wistar rats) |
| --- | --- | --- | --- | --- | --- | --- | --- | --- | --- | --- | --- | --- | --- |
| COc1ccc2cc3[n+](cc2c1OC)CCc1cc2c(cc1-3)OCO2 [Berberine hydrochloride, berberine hydrochloride] | 15.10 | 12.09 | 1.86 | 193.4 ± 32.9 | 942.4 ± 64.5 | 768.4 ± 38.1 | 1.8 | 1.9 | 2.1 | 2.2 | 1.9 | 15.17 | 15.14 ± 3.67 |
| COc1ccc2cc3[n+](cc2c1OC)CCc1cc2c(cc1-3)OCO2.C[C@H](CCC(=O)[O-])[C@H]1CC[C@H]2[C@@H]3[C@@H](O)C[C@@H]4C[C@H](O)CC[C@]4(C)[C@H]3CC[C@]12C [HTD1801] |  |  |  | 188.8 ± 21.3 | 303.0 ± 99.1 | 409.9 ± 51.7 | 0.7 | 1.3 | 0.8 | 1.3 | 1.1 |  | 9.39 ± 1.45 |
| C[C@H](CC(=O)O)[C@H]1CC[C@H]2[C@@H]3[C@@H](O)C[C@@H]4C[C@H](O)CC[C@]4(C)[C@H]3CC[C@]12C [nor-UDCA, norursodeoxycholic acid] | 12.95 | 21.82 | 20.67 | 198.3 ± 94.5 | 761.8 ± 374.2 | 683.4 ± 253.7 | 1.6 | 2.1 | 2.0 | 2.5 | 1.7 | 6.18 | 16.79 ± 5.48 |
